Values of other authors as cited in patent US20080182823A1, “POLYMER-LINKED-BIOPHOSPHONATE INHALANT FORMULATIONS AND METHODS FOR USING THE SAME” (priority 2007, published 2008).

Tested on: antral mucosa
Settings: rat models; Lichtenberger et al., Dig. Dis. Sci. 45(9):1792-1801, 2000

| SMILES | antral mucosal injury |
| --- | --- |
| NCCCC(O)(P(=O)(O)O)P(=O)(O)O [alendronate, (4-amino-1-hydroxybutylidene)-bis-phosphonate] | cause antral mucosal injury |
| O=P(O)(O)C(O)(Cc1cccnc1)P(=O)(O)O [risedronate, [1-Hydroxy-2-(3-pyridinyl)-ethylidine] bis-phosphonate] | cause antral mucosal injury |
